Measurements as given in US4791215A, “Derivatives of glutamic acid and aspartic acid” (priority 1984, dated 1988).
“And” between values parts separate entries of the source, which are not always exact repeats. Identical values can stand only once.

Columns and labels:
[1] = tested on: biliary flow; assay: Biliary flow (choleretic activity); assay type: in vivo, rat; settings: for ED50: Rattus norvegicus, iv, average over 2 hours, read-out: ED50 (dose causing 50% increase in biliary flow)
Procedure: The following experiment was carried out: a cannula was inserted in the bile duct of a rat anaesthetised with urethane, together with a small needle connected to a polythene tube, and the bile liquid was thus collected. The collection was carried out for one hour before the intravenous administration of the tested compounds and for a further two hours after administration, the samples collected at 30 minute intervals being weighed.
In order to prevent possible dehydration of the animals, 0.5 ml of physiological solution was administered at 30 minute intervals up to a total of 3 ml.

[2] = tested on: CCK-8 induced contraction of guinea pig gall bladder; assay: Anti-CCK activity on gall bladder strips in vitro; settings: CCK-8 10 ng/ml
How it was run: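 Longitudinal guinea pig gall bladder strips in Krebs at 32 °C, gassed with O2/CO2 95:5, were contracted with 10 ng/ml CCK-8. Isometric force was recorded across several compound concentrations, and ED50 was taken as the μg/ml concentration antagonising 50% of the CCK contraction.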

[3] = tested on: intestinal transit of carbon; assay: Anti-spastic activity, vegetable carbon intestinal transit test; assay type: in vivo, mice; settings: Mus musculus, ip; read-out: antispastic activity ED50 (dose reducing intestinal transit of carbon by 50%)
Text: The anti-spastic activity which the present compounds exert on the entire digestive system is also notable. Measured in mice with the vegetable carbon test (rate of transit through the stomach and the intestine), this activity is illustrated in the following table.
claimed administered intraperitoneally in mice. Values
expressed as the ED 50 in mg/kg, that is the dose which
reduces the intestinal transit of carbon by 50%

[4] = tested on: CCK-8 induced contraction of rabbit colon; assay: Anti-spastic activity in the colon stimulated by CCK-8; assay type: in vivo
Procedure: A much more specific anti-spastic activity, that is adhering much more to a physiological situation, is illustrated by the following experiment.
The abdomen of an anaesthetised rabbit was cut open to show the transverse colon. A small balloon full of water was inserted at the point established and connected to a pressure transducer by means of a polythene cannula filled with water.
The optimum sensitivity was fixed in relation to the physiological conditions and the products were administered through the femoral vein. Contractions were induced by the administration of 100 ng/kg of CCK.

[5] = tested on: morphine analgesia; assay: Increase in analgesia of morphine, Tail Flick Test (Experiment 1); assay type: in vivo, rats; settings: for percentage variation of latency of pain sensation / M (10-90) ± SE, mean percentage variation of latency: compound 10 mg/kg i.p. + morphine 2 mg/kg; for M (10-90) ± SE, mean percentage variation of latency: mean 10-90 min; for Power ratio with respect to morphine alone: rat, in vivo
How it was run: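 Non-fasted male rats (150-200 g); a tail point is exposed to a 75 °C heat source and latency to tail movement recorded, 8 s cut-off. Readings taken before and 10, 20, 30, 45, 60 and 90 min after analgesic treatment; percentage variation calculated per animal.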

[6] = tested on: CCK-8 induced contraction of guinea pig gall bladder; assay: Anti-CCK-8 activity on gall bladders in situ; assay type: in vivo; settings: for percentage inhibition of contracting effect of CCK-8: single experiments; for ED50: Cavia porcellus, iv, CCK-8 10 ng/kg i.v., read-out: ED50 (inhibition of 50% of contracting effect of CCK-8)
Procedure: In order to confirm the evidence of the studies in vitro several of the more interesting compounds were tested in vivo on guinea pig gall baldders in situ.
The method used is that described by Ljungberg (Svensk. Farm. Tidskr. 68, 351-354, 1964).
Guinea pigs having a weight of about 400 g, anaesthetised with urethane, were used; the substances under examination were administered intraveneously into the jugular vein.
The responses of the gall bladders to the substances under test were detected by means of a force transducer and recorded by means of a microdynamometer. The optimum contracting dose was chosen as 10 ng/kg of CCK-8. The antagonist compounds tested were administered in increasing doses so as to enable the calculation of an ED50 value, that is in the dose (in mg/kg i.v.) capable of inhibiting 50% of the contracting effect of 10 ng/kg i.v. of CCK-8.
The results obtained are given in Table 7 below, which gives the doses used and the effects obtained expressed as a percentage inhibition of the contracting effect of CCK-8 as well as the ED50 found.

[7] = tested on: pancreatic adenocarcinoma; assay type: in vivo, hamsters
Text: (§1) The anti-cholecystokinin effect of the most powerful of the compounds which are the subject of the present invention, that is the compound C-7, on the trophic activity of CCK on normal pancreatic cells and on those of a pancreatic adenocarcinoma is to be studied.
(§2) Male hamsters were inoculated in the cheek pouches with a suspension of 1×10^5 tumoral cells of a pancreatic adenocarcinoma. Five days after the inoculation the animals were divided at random into 4 groups of 10 animals each, that is, a control group, a group of animals treated with 10 μg/kg of CCK-8 three times a day, a group of animals treated with 5 mg/kg i.p. of compound C-7 three times a day, and a fourth group treated simultaneously with the compound C-7 and CCK-8 in the manner described above.
(§3) After 15 days of this treatment, the animals were killed, and the normal pancreas and the inoculated pancreatic tumours in the cheek pouches were collected and weighed. The DNA was extracted and measured according to conventional techniques.
(§4) The results thus obtained are given in Table 13, expressed as mean values (±S.E.)

[8] = tested on: normal pancreatic cells; assay: Trophic action of CCK-8 on normal pancreas; assay type: in vivo, hamsters; settings: CCK-8 10 mcg/kg 3 times per day
Text: as §1, §2, §3, §4

[9] = tested on: endogenous opiates analgesia; assay: Analgesic activity of endogenous opiates released by transcutaneous shock, Tail Flick Test (Experiment 3); assay type: in vivo, rats
Procedure: Experiment No. 3: Influence of several of the compounds of the invention on the analgesic activities of endogenous opiates released by transcutaneous shock in rats and measured by the Tail Flick Test
The method is that described by Lewis et al. J. Neurosc. 1, 358 […]. Male rats which have not fasted and have a weight of about 200 g are used.
The animals are stressed by the application of a 60 Hz-2.5 mA current to the front leg in pulses of a duration of 1 second every 5 seconds for 20 minutes.
This stress regime induces the release of endogenous opiates.

[10] = CCK-8 10 mcg/kg 3 times per day

Row | Molecule | ED50 [1] | ED50 (concentration antagonising 50% of contracting effect of CCK-8) [2] | ED50 [3] | percentage variation of latency of pain sensation ([5]; 10') | percentage variation of latency of pain sensation ([5]; 20') | percentage variation of latency of pain sensation ([5]; 30') | percentage variation of latency of pain sensation ([5]; 45') | percentage variation of latency of pain sensation ([5]; 60') | percentage variation of latency of pain sensation ([5]; 90') | M (10-90) ± SE, mean percentage variation of latency [5] | Power ratio with respect to morphine alone [5] | percentage inhibition of contracting effect of CCK-8 ([6]; 0.03 mg/kg i.v.) | percentage inhibition of contracting effect of CCK-8 ([6]; 1 mg/kg i.v.) | ED50 [6] | other results
1 | CCCCN(CCCC)C(=O)C(CCC(=O)O)NC(=O)c1ccc(Cl)c(Cl)c1 (racemic) [Compound C-6, D,L-4-(3,4-dichloro-benzoyl-amino)-5-(di-n-butylamino)-5-oxo-pentanoic acid] | 4.2 mg/kg | 0.33 µg/mL | 29.5 mg/kg | 89.2% | 91.3 ± 8.7% | 83.6 ± 10.0% | 82.1 ± 16.6% | 79.8 ± 17.0% | 38.2% | 77.4 ± 19.6% | 2.59 | -49.7% and -40.0% | -100.0% | 0.05 mg/kg | % increase in biliary flow with respect to controls ([1]; 3 mg/kg i.v.): +40.4%; % increase in biliary flow with respect to controls ([1]; 10 mg/kg i.v.): +69.8%; % increase in biliary flow with respect to controls ([1]; 30 mg/kg i.v.): +88.7%; effect on CCK-8 stimulated colon ([4]; 0.1 mg/kg iv, single experiments): 0; ED50 ([4]; Oryctolagus cuniculus, iv, CCK 100 ng/kg): 1.53 mg/kg; percentage inhibition of contracting effect of CCK-8 ([6]; 0.01 mg/kg i.v.): -12.9%; block of gall bladder contractions induced by CCK-8 ([6]; 0.1 mg/kg): can block gall bladder contractions induced by CCK-8
2 | CCK-8: the biologically active component of the cholecystokinin hormone [reference compound] |  |  |  |  |  |  |  |  |  |  |  |  |  |  | TUMORAL DNA [7, 10]: 0.7 ± 0.13 mg; Weight of Pancreatic Carcinoma [7, 10]: 180 ± 15.2 mg; animals died during the treatment ([7]; CCK-8 10 mcg/kg 3 times per day, of 10): 2 animals; effect on growth of pancreatic adenocarcinoma / CCK-8 actions ([7]; hamster, in vivo): stimulates the growth of a pancreatic adenocarcinoma; Pancreas weight [8]: 600 ± 54.1 mg; Pancreatic DNA [8]: 1.5 ± 0.11 mg
3 | CCCc1ccc(C(=O)NC(CCC(=O)O)C(=O)N(CCC)CCC)cc1 (stereo not drawn) [Compound C-35] | 29.5 mg/kg | 367.1 µg/mL | 181 mg/kg | 39.9 ± 15% | 62.3 ± 23% | 13.7% | 63.2 ± 17% | 61.3 ± 20% | 28.8 ± 31% | 44.9 ± 21% | 1.51 |  |  |  | % increase in biliary flow with respect to controls ([1]; 12.5 mg/kg i.v.): +9.6%; % increase in biliary flow with respect to controls ([1]; 25 mg/kg i.v.): +51.9%; % increase in biliary flow with respect to controls ([1]; 50 mg/kg i.v.): +91.9%; % increase in biliary flow with respect to controls ([1]; 100 mg/kg i.v.): +159.7%
4 | CCCN(CCC)C(=O)C(CCC(=O)O)NC(=O)c1ccc(CC)cc1 (stereo not drawn) [Compound C-34] |  | 40.1 µg/mL | 65.5 mg/kg | 19.6 ± 23% | 59 ± 17% | 85.5 ± 10% | 78.4 ± 16% | 67 ± 20% | 59.1% | 60.6 ± 23% | 2.03 |  |  |  | average latency, Tail Flick ([9]; compound 1 mg/kg iv + stress, 5'): 5.40 ± 0.35 s; average latency, Tail Flick ([9]; compound 1 mg/kg iv + stress, 10'): 4.9 ± 0.25 s; average latency, Tail Flick ([9]; compound 1 mg/kg iv + stress, 15'): 3.4 ± 0.16 s; average latency, Tail Flick ([9]; compound 3 mg/kg iv + stress, 5'): 6.56 ± 0.33 s; average latency, Tail Flick ([9]; compound 3 mg/kg iv + stress, 10'): 5.58 ± 0.31 s; average latency, Tail Flick ([9]; compound 3 mg/kg iv + stress, 15'): 3.98 ± 0.32 s
5 | CCCN(CCC)C(=O)C(CCC(=O)O)NC(=O)c1cccc(C)c1 (stereo not drawn) [Compound C-28] |  | > 300 µg/mL | 91.8 mg/kg | 15.7 ± 10% | 66.8 ± 18% | 68.3 ± 20% | 68.4 ± 17% | 74.5 ± 11% | 27.5 ± 15% | 53.5 ± 25% | 1.80 |  |  |  | 
6 | CCCCCN(CCCCC)C(=O)C(CCC(=O)O)NC(=O)c1ccc(Cl)cc1 (stereo not drawn) [Compound C-4] |  | 1.1 µg/mL | 38.8 mg/kg | 44.6 ± 5.3% | 67.5 ± 13.4% | 66.3 ± 14.0% | 60.4 ± 16.3% | 59.8 ± 17.0% | 44.2 ± 14.8% | 57.1% | 1.92 | -11.8% | -92.1% and -88.5% | 0.3 mg/kg | 
